Reference: US10093656B2, “Fused-ring or tricyclic aryl pyrimidine compound used as kinase inhibitor” (NANJING SANHOME PHARMACEUTICAL CO., LTD, priority 2015, dated 2018)

Columns and labels:
EGFR T790M/L858R = target: T1, EGFR T790M/L858R (Homo sapiens, UniProt P00533, L858R/T790M); assay: EGFR T790M/L858R enzyme HTRF inhibition assay; type: biochemical; conditions: 20 μM ATP, read-out: EGFR L858R/T79M IC50
T1 construct: purchased Life technology (Madison, Wis.)
Procedure, shortened: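 HTRF assay with 0.04 nM enzyme, 1 μM biotin-TK1 peptide and 20 μM ATP, 60 min at 23° C. Product detected with Eu-anti-TK1 antibody/XL665 (60 min at 23° C); compound at 10 doses, 300 nM to 0.015 nM final. IC50 from four-parameter fit.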

[1] = tested on: NCI-H1975 lung cancer patient-derived xenograft (CDX); assay: Pharmacodynamics study in vivo, NCI-H1975 xenograft (CDX) model; set-up: species or system BALB/c nude mice; conditions: AZD9291 5 mg/kg
Procedure, shortened: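 Female BALB/c nude mice (6-8 weeks) carrying subcutaneous NCI-H1975 tumour tissue; dosing began at mean tumour volume about 150-200 mm^3. Compounds given orally once daily for 21 days at 10 or 20 mg/kg. Caliper measurements twice weekly, V = 0.5 a×b2.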

[2] = tested on: NCI-H1975 cells EGFR L858R/T790M; assay: NCI-H1975 cell viability assay (Cell Titer-Glo, 6 days); type: cell-based; conditions: Homo sapiens, 144 h
Procedure, shortened: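 A431 (EGFR WT) and NCI-H1975 (EGFR L858R/T790M) cells treated for 6 days at 37° C, in duplicate with 10 three-fold doses from 10 μM to 0.508 nM final. Viability read as CellTiter-Glo luminescence. IC50 from four-parameter fit of % inhibition.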

T1 sequence (P00533 25-1210 T790M/L858R): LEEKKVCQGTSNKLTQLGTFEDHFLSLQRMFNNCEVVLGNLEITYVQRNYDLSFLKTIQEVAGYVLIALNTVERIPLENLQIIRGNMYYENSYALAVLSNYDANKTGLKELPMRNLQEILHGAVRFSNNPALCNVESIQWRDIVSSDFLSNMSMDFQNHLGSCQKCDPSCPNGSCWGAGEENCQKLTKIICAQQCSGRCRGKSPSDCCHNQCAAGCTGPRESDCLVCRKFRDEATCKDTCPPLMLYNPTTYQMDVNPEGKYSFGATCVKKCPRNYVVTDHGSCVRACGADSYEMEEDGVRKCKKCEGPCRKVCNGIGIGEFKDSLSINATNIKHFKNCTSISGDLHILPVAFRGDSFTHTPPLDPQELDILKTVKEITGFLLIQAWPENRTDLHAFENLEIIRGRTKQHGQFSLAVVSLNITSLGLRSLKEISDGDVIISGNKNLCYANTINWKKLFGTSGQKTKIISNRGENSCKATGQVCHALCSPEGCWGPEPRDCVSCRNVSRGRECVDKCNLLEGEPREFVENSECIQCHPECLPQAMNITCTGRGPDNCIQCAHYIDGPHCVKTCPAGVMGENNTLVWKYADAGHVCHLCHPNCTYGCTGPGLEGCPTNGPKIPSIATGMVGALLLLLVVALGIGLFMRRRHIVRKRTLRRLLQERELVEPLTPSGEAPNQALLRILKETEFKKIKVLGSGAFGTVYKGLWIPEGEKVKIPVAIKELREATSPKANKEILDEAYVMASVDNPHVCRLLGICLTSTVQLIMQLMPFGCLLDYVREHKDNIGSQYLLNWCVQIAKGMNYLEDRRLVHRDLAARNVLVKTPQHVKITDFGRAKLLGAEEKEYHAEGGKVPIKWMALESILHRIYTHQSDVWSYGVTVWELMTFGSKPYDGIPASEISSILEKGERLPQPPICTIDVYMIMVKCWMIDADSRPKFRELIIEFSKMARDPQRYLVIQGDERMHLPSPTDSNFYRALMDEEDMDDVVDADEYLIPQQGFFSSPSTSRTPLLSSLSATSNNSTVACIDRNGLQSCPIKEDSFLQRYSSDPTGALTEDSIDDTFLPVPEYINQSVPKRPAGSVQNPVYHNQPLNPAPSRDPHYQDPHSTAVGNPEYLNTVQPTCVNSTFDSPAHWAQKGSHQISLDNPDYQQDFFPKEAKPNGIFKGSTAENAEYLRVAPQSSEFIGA

C=CC(=O)Nc1cc(Nc2ncc(F)c(-c3c4n(c5cc(F)ccc35)CCOC4)n2)c(OC)cc1N(C)CCN(C)C [Embodiment 33, N-(2-((2-(Dimethylamino)ethyl)(methyl)amino)-5-((5-fluoro-4-(7-fluoro-3,4-dihydro-1H-[1,4]oxazino[4,3-a]indol-10-yl)pyrimidin-2-yl)amino)-4-methoxyphenyl)acrylamide]
IC50 (EGFR T790M/L858R): 0.5 nM
Tumor Volume (mm^3) 4 days ([1]; day 4, oral daily: compound 30 10 mg/kg, 33, 34, 40, 42, 43 20 mg/kg): 91 mm^3
Tumor Volume (mm^3) 7 days ([1]; day 7, oral daily: compound 30 10 mg/kg, 33, 34, 40, 42, 43 20 mg/kg): 68 mm^3
Tumor Volume (mm^3) 11 days ([1]; day 11, oral daily: compound 30 10 mg/kg, 33, 34, 40, 42, 43 20 mg/kg): 43 mm^3
Tumor Volume (mm^3) 14 days ([1]; day 14, oral daily: compound 30 10 mg/kg, 33, 34, 40, 42, 43 20 mg/kg): 27 mm^3
Tumor Volume (mm^3) 18 days ([1]; day 18, oral daily: compound 30 10 mg/kg, 33, 34, 40, 42, 43 20 mg/kg): 9 mm^3
Tumor Volume (mm^3) 21 days ([1]; day 21, oral daily: compound 30 10 mg/kg, 33, 34, 40, 42, 43 20 mg/kg): 3 mm^3
IC50 [2]: 90 nM
